Entries after “also recorded” stand apart in the source; their conditions may differ.
Legend:
ruminal microbiota [1] = test: Ruminal microbial fermentation in vitro (six generations): urea and NH3-N; type: cell-based, rumen fluid of Chinese Holstein dairy cows; conditions: 100 μM compound, 24 h, p < 0.01
Protocol: Seven solutions were prepared for the anaerobic media as solution A (3 g/L K2HPO4), solution B (0.6 g/L CaCl2, 3 g/L K2HPO4, 6 g/L NaCl, 0.6 g/L MgSO4·7H2O), solution C (6 g/L K2HPO4), solution D (1.6 g/L CaCl2·2H2O, 6 g/L K2HPO4, 12 g/L NaCl, 2.5 g/L MgSO4·7H2O), trace element solution (300 mg/L H3BO3, 100 mg/L ZnSO4·7H2O, 30 mg/L MnCl2·4H2O, 20 mg/L CoCl2·6H2O, 30 mg/L Na2MoO4·2H2O, 10 mg/L Na2SeO3, 20 mg/L NiCl2, 10 mg/L CuCl2·2H2O, 150 mg/L FeCl2·4H2O), volatile fatty acid (VFA) mixed solution (17 mL acetic acid, 6 mL propionic acid, 4 mL butyric acid, 1 mL n-valeric acid, 1 mL isovaleric acid, and 1 mL isobutyric acid), and hemin solution, prepared by diluting 50 mg of Haemon in NaOH (1 N solution) and made up to 100 mL with distilled water. Each liter of anaerobic media contained 30 mL of autoclaved rumen fluid supernatant, 0.5 g of glucose, 0.5 g of soluble starch, 0.5 g of cellobiose, 0.5 g of maltose, 0.5 g of […], 0.5 g of tripticase, 0.5 g of yeast extract, 8 g of NaHCO3, 0.1 mL of trace elements solution, 15 mL solution A, 15 mL solution B, 0.5 g of cysteine hydrochloride, 10 mL of hemin solution, 3.1 mL of VFA mixed solution, and 1 mg resazurin. The anaerobic urea solution was prepared using an anaerobic glove box, by dissolving 2.5 g of urea in a 50 mL anaerobic diluent. This diluent consisted of 3.8 mL of salt solution C, 3.8 mL of salt solution D, 5 mL of 8% sodium Na2CO3, 1 mL of 0.1% resazurin, 0.5 g of cysteine hydrochloride dissolved in distilled water and made up to 1000 mL and distributed into 50 mL anaerobic bottles. All the anaerobic bottles were sterilized by autoclave. Prior to the inoculation, fresh frozen rumen fluid samples, pretreated as described previously, were removed from the freezer, thawed, homogenized, and used immediately. […] Chromatographic gradients were referenced to the paper.

Caco-2 cells = test: CCK8 colorimetric cytotoxicity assay; type: cell-based; conditions: concentration below 100 μM, 24 h, p > 0.05
Protocol: A standard CCK8 colorimetric assay was employed for the evaluation of cytotoxic activity of compound 6238-0047 using 96-well flat bottomed microplates. Dulbecco’s Modified Eagle Medium (GIBCO) with 10% FBS (fetal bovine serum, FBS, Gibco) and 1% NEAA was used for the culturing of Caco-2 cells (ATCC, Manassas, VA, USA), and the medium was supplemented with 100 μg/mL of streptomycin and 100 IU/mL of penicillin. The medium was kept in 5% CO2 and incubated at 37 °C. The exponentially grown cells were harvested, counted using a hemocytometer and diluted with the medium. The cell culture was diluted to a density of 1 × 10^5 cells/mL and transferred into a 96-well plate with 135 μL or […]. The medium was incubated for 24 h for cell attachment. Following this, 15 μL of compounds with different final concentrations of 1, 10, 25, 50, and 100 μM in the experimental group and fresh medium as a control group, were added to a plate with five replicates for each. After 24 h of incubation at 37 °C and kept in 5% CO2, 15 μL of CCK8 was added to each well and after 2 h the absorbance was measured at 450 nm using a microplate reader. The formula for calculating the relative cell viability was as follows:Relative cell viability (%) = absorbance of experimental group/absorbance of control group × 100%

ruminal microbiota [2] = test: Chemical degradation rate of compound in ruminal microbial fermentation (UPLC-HRMS); conditions: 100 μM
Protocol: The generation fermentation experiments were performed in anaerobic tubes containing 5 mL of an anaerobic medium, and in total, six generations of fermentation were performed. Altogether 54 tubes were prepared with nine tubes for each generation of fermentation. […] For the AHA treated group, the AHA working solution was prepared by diluting 3.76 mg AHA with 10 mL of methanol (5000 μM AHA). […] For the control group, the working solution contained only the solvent (methanol). All the working solutions were filtered by 0.22 μm of a membrane filter (Millipore Express PES Membrane, MILLEX GP). For each group, 100 µL of the working solution was added to each tube to mix with the anaerobic medium. […] Before the inoculation of each tube in each generation with fresh rumen fluid, 100 µL of the anaerobic urea solution was extracted from the anaerobic bottle using a syringe and filtered through 0.22 μm membrane filters, and then injected to the anaerobic tube to make the urea concentration at 16.65 mM in the tube. […] The NH4-N and Urea-N concentration was measured by the Berthelot alkaline phenol-hypochlorite method and the diacetyl monoxime method kit (Nanjing Jiancheng Co., Nanjing, China) following the manufacturer’s protocol. […]

COc1ccc(-c2ccc(CCC(=O)O)n2NC(N)=O)cc1 [6238-0047, 3-[1-[(aminocarbonyl)amino]-5-(4-methoxyphenyl)-1H-pyrrol-2-yl] propanoic acid]
Amount of urea degradation vs control group (ruminal microbiota [1]; 16.65 mM urea): significantly lowered the amount of urea degradation
NH3-N concentration / production vs control group (ruminal microbiota [1]): significantly lower than the control group; also recorded: consistently lower than the control group
Relative cell viability of Caco-2 cell culture (Caco-2 cells): no significant adverse effect; also recorded: no significant influence; also recorded: no cytotoxic effect
24 h degradation rate (ruminal microbiota [2]; first-generation ruminal microbial culture): 3.32%
24 h degradation rate (ruminal microbiota [2]; sixth generation ruminal microbial culture): 16.00%

From paper PMC7503308, “A Novel Urease Inhibitor of Ruminal Microbiota Screened through Molecular Docking” (International Journal of Molecular Sciences, 2020)
